Measured values: the NIST ThermoML archive (doi:10.1021/je800463k)

Test: mn = molality of the nth substance listed, in mol/kg
Settings: 101 kPa, Liquid; for mass density: Pycnometric method; for electrical conductivity: Frequency=0.001 MHz, Alternating current cell with electrodes; for speed of sound: Frequency=2 MHz

O=[N+]([O-])[O-].O=[N+]([O-])[O-].[Mg+2] [magnesium nitrate] + CO
Settings	electrical conductivity [S/m]	mass density [kg/m3]	speed of sound [m/s]	viscosity [mPa·s]
308.75 K, m1 = 0.4555	–	824.82	–	–
308.75 K, m1 = 1.004	–	877.82	–	–
308.85 K, m1 = 1.492	–	927.12	–	–
309.1 K, m1 = 0.0082	–	775.87	–	–
309.4 K, m1 = 0.1047	–	789.92	–	–
309.75 K, m1 = 0.0545	–	782.89	–	–
309.75 K, m1 = 0.881	–	863.28	–	–
309.9 K, m1 = 0.2776	–	806.88	–	–
309.95 K, m1 = 1.259	–	904.15	–	–
310.1 K, m1 = 0.782	–	861.14	–	–
310.2 K, m1 = 0.0667	–	784.14	–	–
310.3 K, m1 = 1.71	–	944.04	–	–
310.4 K, m1 = 0.4024	–	818.47	–	–
310.45 K, m1 = 0.6276	–	841.27	–	–
310.65 K, m1 = 0.4555	–	823.17	–	–
310.7 K, m1 = 1.004	–	876	–	–
311.55 K, m1 = 1.875	–	953.58	–	–
311.6 K, m1 = 0.0082	–	773.44	–	–
311.7 K, m1 = 0.0667	–	782.46	–	–
311.9 K, m1 = 0.881	–	861.58	–	–
311.9 K, m1 = 1.259	–	902.37	–	–
312 K, m1 = 0.1047	–	787.42	–	–
312 K, m1 = 1.492	–	924.32	–	–
312.1 K, m1 = 0.4024	–	816.76	–	–
312.2 K, m1 = 0.4555	–	821.41	–	–
312.25 K, m1 = 0.6276	–	839.48	–	–
312.3 K, m1 = 0.0545	–	780.41	–	–
312.45 K, m1 = 1.71	–	942.18	–	–
312.5 K, m1 = 0.2776	–	804.41	–	–
312.85 K, m1 = 0.782	–	858.54	–	–
313.15 K, m1 = 0.0082	0.1573	–	1059.8	0.4543
313.15 K, m1 = 0.0545	0.4382	–	1066.6	0.483
313.15 K, m1 = 0.0667	0.4799	–	1067.2	0.4662
313.15 K, m1 = 0.1047	0.6326	–	1072.3	0.5128
313.15 K, m1 = 0.2776	1.215	–	1090.3	0.5885
313.15 K, m1 = 0.4024	1.537	–	1099.9	0.6799
313.15 K, m1 = 0.4555	1.625	–	1105.5	0.7062
313.15 K, m1 = 0.6276	1.951	–	1123.8	0.8707
313.15 K, m1 = 0.782	2.183	–	1140.7	0.9902
313.15 K, m1 = 0.881	2.262	–	1147.3	0.9936
313.15 K, m1 = 0.9116	2.287	–	1150.2	1.038
313.15 K, m1 = 1.004	2.39	–	1164.5	1.124
313.15 K, m1 = 1.259	2.502	–	1183.5	1.536
313.15 K, m1 = 1.492	2.545	–	1210.2	1.837
313.15 K, m1 = 1.71	2.587	–	1231.4	2.169
313.15 K, m1 = 1.875	2.567	–	1240.4	2.45
313.3 K, m1 = 0.0667	–	780.84	–	–
313.65 K, m1 = 1.004	–	873.36	–	–
313.7 K, m1 = 1.875	–	951.61	–	–
313.85 K, m1 = 0.4024	–	815.07	–	–
313.95 K, m1 = 0.0545	–	778.79	–	–
314 K, m1 = 0.0082	–	771.07	–	–
314.25 K, m1 = 1.492	–	922.37	–	–
314.4 K, m1 = 0.1047	–	784.98	–	–
314.6 K, m1 = 1.71	–	940.19	–	–
314.7 K, m1 = 0.881	–	858.85	–	–
314.8 K, m1 = 0.4555	–	818.87	–	–
314.85 K, m1 = 1.259	–	899.51	–	–
314.9 K, m1 = 0.6276	–	836.88	–	–
315.1 K, m1 = 0.2776	–	801.88	–	–
315.45 K, m1 = 0.4024	–	813.41	–	–
315.65 K, m1 = 0.0667	–	778.45	–	–
315.65 K, m1 = 0.782	–	855.81	–	–
315.8 K, m1 = 1.875	–	949.71	–	–
315.95 K, m1 = 0.1047	–	783.38	–	–
316.35 K, m1 = 0.0545	–	776.41	–	–
316.5 K, m1 = 0.4555	–	817.2	–	–
316.6 K, m1 = 0.881	–	857.07	–	–
316.6 K, m1 = 1.004	–	870.6	–	–
316.65 K, m1 = 0.6276	–	835.18	–	–
316.75 K, m1 = 1.259	–	897.65	–	–
317.35 K, m1 = 0.2776	–	799.43	–	–
317.35 K, m1 = 1.492	–	919.48	–	–
317.5 K, m1 = 0.782	–	854.04	–	–
317.8 K, m1 = 1.875	–	947.68	–	–
317.85 K, m1 = 1.71	–	937.24	–	–
318.15 K, m1 = 0.0082	–	–	1044.1	–
318.15 K, m1 = 0.0545	–	–	1045.1	–
318.15 K, m1 = 0.0667	–	–	1051.1	–
318.15 K, m1 = 0.1047	–	–	1056.1	–
318.15 K, m1 = 0.2776	–	–	1074.8	–
318.15 K, m1 = 0.4024	–	–	1083.3	–
318.15 K, m1 = 0.4555	–	–	1089.9	–
318.15 K, m1 = 0.6276	–	–	1108	–
318.15 K, m1 = 0.782	–	–	1124.4	–
318.15 K, m1 = 0.881	–	–	1131.9	–
318.15 K, m1 = 0.9116	–	–	1134	–
318.15 K, m1 = 1.004	–	–	1148.2	–
318.15 K, m1 = 1.259	–	–	1167.6	–
318.15 K, m1 = 1.492	–	–	1193.9	–
318.15 K, m1 = 1.71	–	–	1216.4	–
318.15 K, m1 = 1.875	–	–	1225.2	–
319.3 K, m1 = 0.881	–	854.45	–	–
319.45 K, m1 = 1.004	–	867.87	–	–
319.55 K, m1 = 1.259	–	894.9	–	–
320.2 K, m1 = 1.492	–	916.67	–	–
320.25 K, m1 = 0.782	–	851.43	–	–
320.75 K, m1 = 1.875	–	944.75	–	–
320.9 K, m1 = 1.71	–	934.37	–	–
323.15 K, m1 = 0.0082	–	–	1027.3	–
323.15 K, m1 = 0.0545	–	–	1033.4	–
323.15 K, m1 = 0.0667	–	–	1035.4	–
323.15 K, m1 = 0.1047	–	–	1039.7	–
323.15 K, m1 = 0.2776	–	–	1058.3	–
323.15 K, m1 = 0.4024	–	–	1067.5	–
323.15 K, m1 = 0.4555	–	–	1076.2	–
323.15 K, m1 = 0.6276	–	–	1093.5	–
323.15 K, m1 = 0.782	–	–	1108.6	–
323.15 K, m1 = 0.881	–	–	1115.5	–
323.15 K, m1 = 0.9116	–	–	1119.3	–
323.15 K, m1 = 1.004	–	–	1133.8	–
323.15 K, m1 = 1.259	–	–	1151.8	–
323.15 K, m1 = 1.492	–	–	1177.5	–
323.15 K, m1 = 1.71	–	–	1199	–
323.15 K, m1 = 1.875	–	–	1209.5	–
